The data set is described as follows: Aqueous solubility determination at room temperature. The settings on record: water; for log Sw (mg/ml) / Sw (log) Experimental: aqueous solubility of the hydrate, room temperature; for Sw (log) Experimental: value in brackets. The format is physicochemical.

On to `Sc1ncnc2nc[nH]c12` [Mercaptopurine, mercaptopurine monohydrate], for which the “log Sw (mg/ml)” value was −0.93 log mg/ml and the “Sw (log) Experimental” value is listed as −0.93 log mg/ml. Moreover, the thermodynamic solubility (in general, the concentration in solution at equilibrium with solid) at 48 h (thermodynamic from solid) is 120 µg/mL.
Regarding `O=c1c(O)c(-c2cc(O)c(O)c(O)c2)oc2cc(O)cc(O)c12` [Myricetin, Myricetin (MYR) monohydrate], the “log Sw (mg/ml)” value was −3.19 log mg/ml and the “Sw (log) Experimental” value is −3.19 log mg/ml.
